Experimental data: patent publication US20180099967A1, “FUSED TRICYCLIC HETEROCYCLIC COMPOUNDS AS HIV INTEGRASE INHIBITORS” (MERCK SHARP & DOHME CORP., priority 2015, published 2018)
Read-outs that look alike come from different tables or passages of the source.

Test system: HIV-1
Assay: microbe, parasite or virus in culture
Type: cell-based, HIV-1 (H9IIIB or NL4-3 virus)
Procedure: HIV-1 replication was monitored using MT4-gag-GFP clone D3 (hereafter designate MT4-GFP), which are MT-4 cells modified to harbor a GFP reporter gene, the expression of which is dependent on the HIV-1 expressed proteins tat and rev. Productive infection of an MT4-GFP cell with HIV-1 results in GFP expression approximately 24 h post-infection.
MT4-GFP cells were maintained at 37° C./5% CO2/90% relative humidity in RPMI 1640 supplemented with 10% fetal bovine serum, 100 U/ml penicillin/streptomycin, and 400 μg/ml G418 to maintain the reporter gene. For infections, MT4-GFP cells were placed in the same medium lacking G418 and infected overnight with H9IIIB or NL4-3 virus at an approximate multiplicity of infection of 0.01 in the same incubation conditions. Cells were then washed and resuspended in either RPMI 1640 containing no serum at 1.6×10^5 cells/mL (serum free conditions), 10% normal human serum at 1.6×10^5 cells/mL (10% NHS conditions) or in 100% normal human serum at 2×10^5 cells/mL (100% NHS conditions). Compound plates were prepared by dispensing compounds taken up in DMSO into wells of 384 well poly D lysine-coated plates (0.2 μl/well) using an ECHO acoustic dispenser. Each compound was tested in a 10 point serial 3-fold dilution (typical final concentrations: 4.2 μM-0.21 nM). Controls included no inhibitor (DMSO only) and a combination of three antiviral agents (efavirenz, indinavir, and the integrase strand transfer inhibitor L-002254051 at final concentrations of 4 μM each). Cells were added (50 μL/well) to compound plates and the infected cells were maintained at 37° C./5% CO2/90% relative humidity.
Infected cells were quantified at two time points, ˜48 h and ˜72 h post-infection, by counting the number of green cells in each well using an Acumen eX3 scanner. […] Inhibition of R0 is calculated for each well, and IC50 value was determined using non-linear 4-parameter curve fitting.

[1] = read-out: WILD TYPE CELL ASSAY Viking IP (0% NHS)
[2] = read-out: WILD TYPE CELL ASSAY Viking IP (100% NHS)
[3] = Human immunodeficiency virus 1, read-out: WILD TYPE CELL ASSAY Viking IP (0% NHS) (nM)
[4] = Human immunodeficiency virus 1, read-out: WILD TYPE CELL ASSAY Viking IP (100% NHS) (nM)

Row | Structure (SMILES) | IC50 [1] [nM] | IC50 [2] [nM] | IC50 [3] [nM] | IC50 [4] [nM]
1 | CCN1C[C@@H]2CC(N3CCCC3)c3c(C(=O)NCc4ccc(F)cc4F)c(=O)c(O)c(n32)C1=O (single isomer, unassigned) [Compound 33] | 9 | 32 | – | –
2 | CCN1C[C@@H]2CC(N3CCCC3)c3c(C(=O)NCc4ccc(F)cc4F)c(=O)c(O)c(n32)C1=O (single isomer, unassigned) [Compound 34] | 55 | 487 | – | –
3 | CCN1C[C@H]2CC(N3CCCC3)c3c(C(=O)NCc4ccc(F)cc4F)c(=O)c(O)c(n32)C1=O (single isomer, unassigned) [Compound 35] | 26 | 62 | – | –
4 | CCN1C[C@H]2CC(N3CCCC3)c3c(C(=O)NCc4ccc(F)cc4F)c(=O)c(O)c(n32)C1=O (single isomer, unassigned) [Compound 36] | 6 | 1190 | – | –
5 | CCN1C[C@@H]2C[C@@H](N3CCCC3)c3c(C(=O)NCc4cccc(F)c4F)c(=O)c(O)c(n32)C1=O (single isomer, unassigned) [Compound 43] | – | – | 10 | 42
6 | CCN1C[C@H]2C[C@H](NC(C)=O)c3c(C(=O)NCc4ccc(F)cc4F)c(=O)c(O)c(n32)C1=O (single isomer, unassigned) [Compound 54] | – | – | 6 | 38
7 | CCNC1CC2CN(CCOC)C(=O)c3c(O)c(=O)c(C(=O)NCc4ccc(F)cc4F)c1n32 (single isomer, unassigned) [Compound 65] | – | 42 | 12 | –
8 | CCNC1CC2CN(CCOC)C(=O)c3c(O)c(=O)c(C(=O)NCc4ccc(F)cc4F)c1n32 (single isomer, unassigned) [Compound 66] | 12 | 180 | – | –
9 | CCNC1CC2CN(CCOC)C(=O)c3c(O)c(=O)c(C(=O)NCc4ccc(F)cc4F)c1n32 (single isomer, unassigned) [Compound 67] | 7 | 31 | – | –
10 | CCCN1CC2CC(NS(C)(=O)=O)c3c(C(=O)NCc4ccc(F)cc4F)c(=O)c(O)c(n32)C1=O (single isomer, unassigned) [Compound 68] | 3 | 26 | – | –
11 | CCCN1CC2CC(NS(C)(=O)=O)c3c(C(=O)NCc4ccc(F)cc4F)c(=O)c(O)c(n32)C1=O (single isomer, unassigned) [Compound 69] | 7 | 4560 | – | –
12 | CCCN1CC2CC(NS(C)(=O)=O)c3c(C(=O)NCc4ccc(F)cc4F)c(=O)c(O)c(n32)C1=O (single isomer, unassigned) [Compound 70] | 20 | 1840 | – | –
13 | CCCN1CC2CC(NS(C)(=O)=O)c3c(C(=O)NCc4ccc(F)cc4F)c(=O)c(O)c(n32)C1=O (single isomer, unassigned) [Compound 71] | 3 | 17 | – | –
14 | CCN1C[C@@H]2C[C@@H](N)c3c(C(=O)NCc4ccc(F)cc4F)c(=O)c(O)c(n32)C1=O [Compound 1] | 2 | 19 | – | –
15 | CCN1C[C@@H]2C[C@H](N)c3c(C(=O)NCc4ccc(F)cc4F)c(=O)c(O)c(n32)C1=O [Compound 2] | 12 | 374 | – | –
16 | CCN1C[C@H]2C[C@H](N)c3c(C(=O)NCc4ccc(F)cc4F)c(=O)c(O)c(n32)C1=O [Compound 3] | – | – | 10 | 4500
17 | CCN1C[C@H]2C[C@@H](N)c3c(C(=O)NCc4ccc(F)cc4F)c(=O)c(O)c(n32)C1=O [Compound 4] | – | – | 2 | 158
18 | CCN1C[C@@H]2C[C@@H](NC)c3c(C(=O)NCc4ccc(F)cc4F)c(=O)c(O)c(n32)C1=O [Compound 5] | – | – | 2 | 17
19 | CCN1C[C@@H]2C[C@H](NC)c3c(C(=O)NCc4ccc(F)cc4F)c(=O)c(O)c(n32)C1=O [Compound 6] | – | – | 5 | 245
20 | CCN1C[C@H]2C[C@H](NC)c3c(C(=O)NCc4ccc(F)cc4F)c(=O)c(O)c(n32)C1=O [Compound 7] | – | – | 2 | 3420
21 | CCN1C[C@H]2C[C@@H](NC)c3c(C(=O)NCc4ccc(F)cc4F)c(=O)c(O)c(n32)C1=O [Compound 8] | – | – | 2 | 33
22 | CCN[C@@H]1C[C@H]2CN(CC)C(=O)c3c(O)c(=O)c(C(=O)NCc4ccc(F)cc4F)c1n32 [Compound 9] | – | – | 1 | 11
23 | CCN[C@H]1C[C@H]2CN(CC)C(=O)c3c(O)c(=O)c(C(=O)NCc4ccc(F)cc4F)c1n32 [Compound 10] | – | – | 1 | 170
24 | CCN[C@H]1C[C@@H]2CN(CC)C(=O)c3c(O)c(=O)c(C(=O)NCc4ccc(F)cc4F)c1n32 [Compound 11] | – | – | 2 | 1100

Row | Structure (SMILES) | IC50 [1] [nM] | IC50 [2] [nM] | IC50 [3] [nM] | IC50 [4] [nM]
25 | CCN[C@@H]1C[C@@H]2CN(CC)C(=O)c3c(O)c(=O)c(C(=O)NCc4ccc(F)cc4F)c1n32 [Compound 12] | – | – | 10 | 32
26 | CCN[C@H]1C[C@@H]2CN(CC)C(=O)c3c(O)c(=O)c(C(=O)NCc4c(F)cc(F)cc4F)c1n32 [Compound 13] | – | – | 7 | 4020
27 | CCN[C@@H]1C[C@@H]2CN(CC)C(=O)c3c(O)c(=O)c(C(=O)NCc4c(F)cc(F)cc4F)c1n32 [Compound 14] | – | – | 6 | 47
28 | CCN[C@H]1C[C@@H]2CN(CC)C(=O)c3c(O)c(=O)c(C(=O)NCc4ccc(F)c(Cl)c4F)c1n32 [Compound 15] | – | – | 13 | > 8400
29 | CCN[C@@H]1C[C@@H]2CN(CC)C(=O)c3c(O)c(=O)c(C(=O)NCc4ccc(F)c(Cl)c4F)c1n32 [Compound 16] | – | – | > 42000 | > 42000
30 | CCN[C@H]1C[C@@H]2CN(CC)C(=O)c3c(O)c(=O)c(C(=O)NCc4cccc(F)c4F)c1n32 [Compound 17] | – | – | 14 | 1980
31 | CCN[C@@H]1C[C@@H]2CN(CC)C(=O)c3c(O)c(=O)c(C(=O)NCc4cccc(F)c4F)c1n32 [Compound 18] | – | – | 10 | 25
32 | CCN[C@H]1C[C@@H]2CN(CC)C(=O)c3c(O)c(=O)c(C(=O)NCc4cccc(Cl)c4F)c1n32 [Compound 19] | – | – | 10 | 10900
33 | CCN[C@@H]1C[C@@H]2CN(CC)C(=O)c3c(O)c(=O)c(C(=O)NCc4cccc(Cl)c4F)c1n32 [Compound 20] | – | – | 5 | 28
34 | CCCN[C@H]1C[C@@H]2CN(CC)C(=O)c3c(O)c(=O)c(C(=O)NCc4ccc(F)cc4F)c1n32 [Compound 21] | – | – | 17 | 2290
35 | CCCN[C@@H]1C[C@@H]2CN(CC)C(=O)c3c(O)c(=O)c(C(=O)NCc4ccc(F)cc4F)c1n32 [Compound 22] | – | – | 11 | 34
36 | CCN1C[C@H]2C[C@H](NCC3CC3)c3c(C(=O)NCc4ccc(F)cc4F)c(=O)c(O)c(n32)C1=O [Compound 23] | – | – | 43 | 1090
37 | CCN1C[C@H]2C[C@@H](NCC3CC3)c3c(C(=O)NCc4ccc(F)cc4F)c(=O)c(O)c(n32)C1=O [Compound 24] | – | – | 20 | 37
38 | CCN1C[C@H]2C[C@H](NCc3ccccc3)c3c(C(=O)NCc4ccc(F)cc4F)c(=O)c(O)c(n32)C1=O [Compound 25] | – | – | 28 | 224
39 | CCN1C[C@H]2C[C@@H](NCc3ccccc3)c3c(C(=O)NCc4ccc(F)cc4F)c(=O)c(O)c(n32)C1=O [Compound 26] | – | – | 32 | 108
40 | CCN1C[C@H]2C[C@H](NCCOC)c3c(C(=O)NCc4ccc(F)cc4F)c(=O)c(O)c(n32)C1=O [Compound 27] | – | – | 17 | 968
41 | CCN1C[C@H]2C[C@@H](NCCOC)c3c(C(=O)NCc4ccc(F)cc4F)c(=O)c(O)c(n32)C1=O [Compound 28] | – | – | 6 | 21
42 | CCN1C[C@H]2C[C@H](NCCC(F)(F)F)c3c(C(=O)NCc4ccc(F)cc4F)c(=O)c(O)c(n32)C1=O [Compound 29] | – | – | 7 | 228
43 | CCN1C[C@H]2C[C@@H](NCCC(F)(F)F)c3c(C(=O)NCc4ccc(F)cc4F)c(=O)c(O)c(n32)C1=O [Compound 30] | – | – | 6 | 31
44 | [2H]C([2H])([2H])C([2H])([2H])N[C@H]1C[C@@H]2CN(CC)C(=O)c3c(O)c(=O)c(C(=O)NCc4ccc(F)cc4F)c1n32 [Compound 31] | – | – | 5 | 3720
45 | CCN1C[C@@H]2C[C@@H](N(C)C)c3c(C(=O)NCc4ccc(F)cc4F)c(=O)c(O)c(n32)C1=O [Compound 37] | 2 | 11 | – | –
46 | CCN1C[C@@H]2C[C@@H](N(C)C)c3c(C(=O)NCc4cccc(Cl)c4F)c(=O)c(O)c(n32)C1=O [Compound 38] | – | – | 1 | 12
47 | CCN1C[C@@H]2C[C@@H](N(C)C)c3c(C(=O)NCc4ccc(F)cc4)c(=O)c(O)c(n32)C1=O [Compound 39] | – | – | 3 | 22
